Test results as given in the supplement of paper PMC10307832.

Key:
Experiment in all cases: relative viability (nuclei count vs DMSO), 5 days (fraction); higher = more cells survive
[1] = compound: C1=CC2=NC=CN=C2C=C1/C=C/3\C(=O)NC(=O)S3 + COc1cc2c(Oc3ccc(NC(=O)C4(C(=O)Nc5ccc(F)cc5)CC4)cc3F)ccnc2cc1OCCCN1CCOCC1 [Foretinib] (partner 0.25 µM)
In short: (§1)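 Relative viability is defined as nuclei in treated wells over nuclei in vehicle wells. Duplicate plates were run and medians reported. Lung cancer cell lines in 1536-well plates were dosed by pin tool one day after seeding, with one drug or with a fixed anchor-drug dose plus five library-drug doses (not always all listed) in √10 steps, and nuclei were counted after 5 days.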

[2] = compound: CCN1CCN(c2ccc(Nc3cc(N(C)C(=O)Nc4c(Cl)c(OC)cc(OC)c4Cl)ncn3)cc2)CC1 [BGJ398] + CC1(C)CCC(c2ccc(Cl)cc2)=C(CN2CCN(c3ccc(C(=O)NS(=O)(=O)c4ccc(N[C@H](CCN5CCOCC5)CSc5ccccc5)c(S(=O)(=O)C(F)(F)F)c4)cc3)CC2)C1 [Navitoclax] (partner 0.5 µM)
In short: as §1

[3] = compound: C1=CC2=NC=CN=C2C=C1/C=C/3\C(=O)NC(=O)S3 + Nc1ncn([C@H]2C[C@H](O)[C@@H](CO)O2)c(=O)n1 [Decitabine] (partner 2 µM)
In short: as §1

[4] = compound: CCN1CCN(c2ccc(Nc3cc(N(C)C(=O)Nc4c(Cl)c(OC)cc(OC)c4Cl)ncn3)cc2)CC1 [BGJ398] + Nc1ncn([C@H]2C[C@H](O)[C@@H](CO)O2)c(=O)n1 [Decitabine] (partner 2 µM)
In short: as §1

## NCI-H596
[1]; first compound 0.02 µM
  relative viability: 0.856
[1]; first compound 0.06325 µM
  relative viability: 0.863
[1]; first compound 0.2 µM
  relative viability: 1.05
[1]; first compound 0.6325 µM
  relative viability: 0.742
[1]; first compound 2 µM
  relative viability: 0.899
[2]; first compound 0.01 µM
  relative viability: 0.96
[2]; first compound 0.03162 µM
  relative viability: 0.645
[2]; first compound 0.1 µM
  relative viability: 0.698
[2]; first compound 0.3162 µM
  relative viability: 0.73
[2]; first compound 1 µM
  relative viability: 0.614
[3]; first compound 0.02 µM
  relative viability: 0.886
[3]; first compound 0.06325 µM
  relative viability: 0.954
[3]; first compound 0.2 µM
  relative viability: 1.09
[3]; first compound 0.6325 µM
  relative viability: 0.972
[3]; first compound 2 µM
  relative viability: 1.72
[4]; first compound 0.01 µM
  relative viability: 1.15
[4]; first compound 0.03162 µM
  relative viability: 0.885
[4]; first compound 0.1 µM
  relative viability: 0.977
[4]; first compound 0.3162 µM
  relative viability: 0.991
[4]; first compound 1 µM
  relative viability: 0.778

## NCI-H647
[1]; first compound 0.02 µM
  relative viability: 1.1
[1]; first compound 0.06325 µM
  relative viability: 1.39
[1]; first compound 0.2 µM
  relative viability: 1.17
[1]; first compound 0.6325 µM
  relative viability: 1.11
[1]; first compound 2 µM
  relative viability: 1.21
[2]; first compound 0.01 µM
  relative viability: 0.97
[2]; first compound 0.03162 µM
  relative viability: 1.26
[2]; first compound 0.1 µM
  relative viability: 1.4
[2]; first compound 0.3162 µM
  relative viability: 1.14
[2]; first compound 1 µM
  relative viability: 1.01
[3]; first compound 0.02 µM
  relative viability: 0.339
[3]; first compound 0.06325 µM
  relative viability: 0.458
[3]; first compound 0.2 µM
  relative viability: 0.382
[3]; first compound 0.6325 µM
  relative viability: 0.432
[3]; first compound 2 µM
  relative viability: 0.488
[4]; first compound 0.01 µM
  relative viability: 0.413
[4]; first compound 0.03162 µM
  relative viability: 0.359
[4]; first compound 0.1 µM
  relative viability: 0.491
[4]; first compound 0.3162 µM
  relative viability: 0.336
[4]; first compound 1 µM
  relative viability: 0.412

## NCI-H727
[1]; first compound 0.02 µM
  relative viability: 0.954
[1]; first compound 0.06325 µM
  relative viability: 0.852
[1]; first compound 0.2 µM
  relative viability: 1.04
[1]; first compound 0.6325 µM
  relative viability: 0.853
[1]; first compound 2 µM
  relative viability: 0.588
[2]; first compound 0.01 µM
  relative viability: 0.487
[2]; first compound 0.03162 µM
  relative viability: 0.485
[2]; first compound 0.1 µM
  relative viability: 0.337
[2]; first compound 0.3162 µM
  relative viability: 0.547
[2]; first compound 1 µM
  relative viability: 0.453
[3]; first compound 0.02 µM
  relative viability: 0.891
[3]; first compound 0.06325 µM
  relative viability: 0.848
[3]; first compound 0.2 µM
  relative viability: 0.957
[3]; first compound 0.6325 µM
  relative viability: 0.915
[3]; first compound 2 µM
  relative viability: 0.445
[4]; first compound 0.01 µM
  relative viability: 0.859
[4]; first compound 0.03162 µM
  relative viability: 0.862
[4]; first compound 0.1 µM
  relative viability: 0.965
[4]; first compound 0.3162 µM
  relative viability: 0.862
[4]; first compound 1 µM
  relative viability: 0.669

## NCI-H838
[1]; first compound 0.02 µM
  relative viability: 1.02
[1]; first compound 0.06325 µM
  relative viability: 1.08
[1]; first compound 0.2 µM
  relative viability: 1
[1]; first compound 0.6325 µM
  relative viability: 1.02
[1]; first compound 2 µM
  relative viability: 0.874
[2]; first compound 0.01 µM
  relative viability: 1.08
[2]; first compound 0.03162 µM
  relative viability: 1.11
[2]; first compound 0.1 µM
  relative viability: 1.03
[2]; first compound 0.3162 µM
  relative viability: 0.907
[2]; first compound 1 µM
  relative viability: 0.917
[3]; first compound 0.02 µM
  relative viability: 0.429
[3]; first compound 0.06325 µM
  relative viability: 0.46
[3]; first compound 0.2 µM
  relative viability: 0.415
[3]; first compound 0.6325 µM
  relative viability: 0.481
[3]; first compound 2 µM
  relative viability: 0.39
[4]; first compound 0.01 µM
  relative viability: 0.389
[4]; first compound 0.03162 µM
  relative viability: 0.463
[4]; first compound 0.1 µM
  relative viability: 0.552
[4]; first compound 0.3162 µM
  relative viability: 0.463
[4]; first compound 1 µM
  relative viability: 0.378

## NCI-H1355
[1]; first compound 0.02 µM
  relative viability: 0.816
[1]; first compound 0.06325 µM
  relative viability: 0.976
[1]; first compound 0.2 µM
  relative viability: 1.02
[1]; first compound 0.6325 µM
  relative viability: 0.936
[1]; first compound 2 µM
  relative viability: 0.929
[2]; first compound 0.01 µM
  relative viability: 0.955
[2]; first compound 0.03162 µM
  relative viability: 0.92
[2]; first compound 0.1 µM
  relative viability: 0.996
[2]; first compound 0.3162 µM
  relative viability: 0.914
[2]; first compound 1 µM
  relative viability: 0.825
[3]; first compound 0.02 µM
  relative viability: 0.348
[3]; first compound 0.06325 µM
  relative viability: 0.353
[3]; first compound 0.2 µM
  relative viability: 0.357
[3]; first compound 0.6325 µM
  relative viability: 0.367
[3]; first compound 2 µM
  relative viability: 0.33
[4]; first compound 0.01 µM
  relative viability: 0.378
[4]; first compound 0.03162 µM
  relative viability: 0.309
[4]; first compound 0.1 µM
  relative viability: 0.348
[4]; first compound 0.3162 µM
  relative viability: 0.352
[4]; first compound 1 µM
  relative viability: 0.348

## NCI-H1395
[1]; first compound 0.02 µM
  relative viability: 1.04
[1]; first compound 0.06325 µM
  relative viability: 1.03
[1]; first compound 0.2 µM
  relative viability: 1
[1]; first compound 0.6325 µM
  relative viability: 0.871
[1]; first compound 2 µM
  relative viability: 1.03
[2]; first compound 0.01 µM
  relative viability: 1.08
[2]; first compound 0.03162 µM
  relative viability: 1.36
[2]; first compound 0.1 µM
  relative viability: 1.13
[2]; first compound 0.3162 µM
  relative viability: 0.996
[2]; first compound 1 µM
  relative viability: 0.848
[3]; first compound 0.02 µM
  relative viability: 0.637
[3]; first compound 0.06325 µM
  relative viability: 0.693
[3]; first compound 0.2 µM
  relative viability: 0.74
[3]; first compound 0.6325 µM
  relative viability: 0.703
[3]; first compound 2 µM
  relative viability: 0.651
[4]; first compound 0.01 µM
  relative viability: 0.684
[4]; first compound 0.03162 µM
  relative viability: 0.692
[4]; first compound 0.1 µM
  relative viability: 0.609
[4]; first compound 0.3162 µM
  relative viability: 0.648
[4]; first compound 1 µM
  relative viability: 0.649

## NCI-H1437
[1]; first compound 0.02 µM
  relative viability: 1.19
[1]; first compound 0.06325 µM
  relative viability: 1.24
[1]; first compound 0.2 µM
  relative viability: 1.16
[1]; first compound 0.6325 µM
  relative viability: 1.25
[1]; first compound 2 µM
  relative viability: 1.15
[2]; first compound 0.01 µM
  relative viability: 1.1
[2]; first compound 0.03162 µM
  relative viability: 1.12
[2]; first compound 0.1 µM
  relative viability: 1.07
[2]; first compound 0.3162 µM
  relative viability: 1.08
[2]; first compound 1 µM
  relative viability: 1.06
[3]; first compound 0.02 µM
  relative viability: 0.548
[3]; first compound 0.06325 µM
  relative viability: 0.546
[3]; first compound 0.2 µM
  relative viability: 0.588
[3]; first compound 0.6325 µM
  relative viability: 0.536
[3]; first compound 2 µM
  relative viability: 0.617
[4]; first compound 0.01 µM
  relative viability: 0.59
[4]; first compound 0.03162 µM
  relative viability: 0.532
[4]; first compound 0.1 µM
  relative viability: 0.606
[4]; first compound 0.3162 µM
  relative viability: 0.598
[4]; first compound 1 µM
  relative viability: 0.515

## NCI-H1650
[1]; first compound 0.02 µM
  relative viability: 1
[1]; first compound 0.06325 µM
  relative viability: 0.956
[1]; first compound 0.2 µM
  relative viability: 1.07
[1]; first compound 0.6325 µM
  relative viability: 1.13
[1]; first compound 2 µM
  relative viability: 1.08
[2]; first compound 0.01 µM
  relative viability: 0.859
[2]; first compound 0.03162 µM
  relative viability: 1.04
[2]; first compound 0.1 µM
  relative viability: 0.649
[2]; first compound 0.3162 µM
  relative viability: 0.699
[2]; first compound 1 µM
  relative viability: 0.817
[3]; first compound 0.02 µM
  relative viability: 0.425
[3]; first compound 0.06325 µM
  relative viability: 0.375
[3]; first compound 0.2 µM
  relative viability: 0.47
[3]; first compound 0.6325 µM
  relative viability: 0.36
[3]; first compound 2 µM
  relative viability: 0.347
[4]; first compound 0.01 µM
  relative viability: 0.451
[4]; first compound 0.03162 µM
  relative viability: 0.424
[4]; first compound 0.1 µM
  relative viability: 0.411
[4]; first compound 0.3162 µM
  relative viability: 0.415
[4]; first compound 1 µM
  relative viability: 0.361
